System: LRF (luteinizing hormone releasing factor) induced luteinizing hormone (LH) release
Assay: In vitro LRF antagonist test in rat anterior pituitary cell cultures
Format: cell-based
Excerpt: Nonapeptides of this invention were screened for LRF antagonist activity in vitro using rat anterior pituitary cell cultures as described by Vale et. al. [Endocrinology, 91, 562 (1972)]. The inhibition of LRF (luteinizing hormone releasing factor) induced luteinizing hormone (LH) release into the culture medium is the endpoint in this in vitro bioassay.

Substance: N^α -t-butoxycarbonyl-N^im -benzyl-L-histidyl-L-tryptophyl-O-benzyl-L-seryl-O-benzyl-L-tyrosyl-D-phenylalanyl-L-leucyl-N^G -[(4-methylphenyl)sulfonyl]-L-arginyl-L-prolyl-glycinamide
- LH released into culture medium (compound molar conc. 1×10^-7, LH released into culture medium, LRF control 5×10^-10): 24.91 ng/mL
- % LH Release Inhibition (compound molar conc. 1×10^-7, LRF control 5×10^-10): 87%
- LH released into culture medium (compound molar conc. 1×10^-8, LH released into culture medium, LRF control 5×10^-10): 52.47 ng/mL
- % LH Release Inhibition (compound molar conc. 1×10^-8, LRF control 5×10^-10): 44%

Substance: LRF: luteinizing hormone releasing factor, formed in the hypothalamus, stimulates the secretion of luteinizing hormone from the anterior pituitary (QHWSYGLRPG; Gonadoliberin-1; UniProt P01148 24-33, looked up) [reference compound]
- LH released into culture medium (LRF alone, molar conc. 5×10^-10 (saline control 16.22)): 80.93 ng/mL

— patent US4124577A, “Nonapeptides and methods for their production” (Warner-Lambert, priority 1977, dated 1978)
